# Source: patent publication US7507742B2, “Spirocyclic derivatives” (Pfizer Inc., priority 2005, dated 2009)
# Legend:
# [1] = Free fraction of unbound drug in plasma used for the human estimate; format: in vitro ADME; settings: Table 7, used to convert Clu man to Clman; for fraction unbound: human, plasma, read-out: fup (free fraction of unbound drug in plasma)
# Description: (§1) Based on the above pharmacokinetic data in the rat, the likely human pharmacokinetics of the compounds of Examples 1 and 2, and that of Compound A, can be estimated as follows. • Scaling the unbound rat plasma clearance (Clu rat) observed following intravenous administration to estimate an unbound human plasma clearance (Clu man) using the following relationship: Clu man=Clu rat*(BWman/BWrat)^0.75 where BWman & BWrat are the average body weights of man (70 kg) and rat (0.25 kg) respectively, and units of clearance are in ml/min. • Converting Clu man to estimate total blood clearance in man (Clman): Clman=[(Clu man)*fup]/B:P where fup is the free fraction of unbound drug in plasma and B:P is the blood to plasma ratio in human blood. • An estimate of human half-life is presented for each compound, derived using the relationship: T1/2=[In(2)*Vd]/Cl where T1/2 is the estimated human half-life in hours, Vd is the volume of distribution in man (assumed to be 0.2 L/kg, due to the physicochemistry of this series) and Cl is the human clearance.
# [2] = Fraction unbound in rat plasma; format: in vitro ADME; settings: for fraction unbound: read-out: fup (fraction unbound in rat plasma)
# [3] = tested on: Human Hepatocytes; assay: Human hepatic metabolic stability in cryopreserved human hepatocytes; format: in vitro ADME; settings: intrinsic clearance (apparent); 1 μM substrate, 0.5 million viable cells/mL, 37° C., 5 donors
# Procedure: (§2) The human hepatic metabolic stability of the compounds of Examples 1-7 of the present application were assessed in the model described below. The compound of Example 75 of WO 02/074754, 5′-carboxypropoxy-8′-chloro-spiro[cyclohexane-1-4′-(3′,4′-dihydro)quinazolin]-2′(1′H)-one (hereinafter “Compound A”), which is believed to represent the closest state of the art, was used as a comparison.
# (§3) Hepatocytes are used as an in vitro system to monitor hepatic metabolism as these intact cells contain all the hepatic enzymes found in vivo, including phase I enzymes, such as cytochrome P450 oxidases (CYPs), aldehyde oxidases and monoamine oxidases (MAOs), and phase 11 enzymes, such as UDP-glucuronyltransferases and sulfotransferases. Cryopreserved human hepatocytes are prepared from 5 donors and suspended in Williams' E media. 4-(2-hydroxyethyl)-1-piperazineethanesulfonic acid (HEPES) is added to a final concentration of 50 mM and pH is adjusted to 7.4. Test substrates are dissolved in DMSO are added to the hepatocytes to give a substrate concentration of 1 μM, with a final DMSO concentration in the incubation below 0.1%. The experiments are performed in 96 or 384 well plates at 37° C., with a hepatocyte density of 0.5 million viable cells/mL. Sampling times of 10, 20, 30, 60, 90, and 120 minutes are used and analytical quantitation is by LC-MS/MS. The intrinsic clearance (apparent) is calculated using the formula: CLint, app=[−slope/0.5 M cells/mL]·1000 μL/mL=μL/min/M cells.
# (§4) The human hepatic metabolic stability of the compounds of the present invention was tested according to the above protocol.
# [4] = Estimate of human pharmacokinetics by scaling rat unbound clearance; settings: for Clu man: estimated human clearance scaled from rat: Clu rat*(BWman/BWrat)^0.75, 70 kg man, 0.25 kg rat; for half-life: human, T1/2=[ln(2)*Vd]/Cl, Vd in man assumed 0.2 L/kg, read-out: Estimated T1/2 (human half-life) (converted)
# Description: as §1
# [5] = Blood to plasma ratio in human blood; format: in vitro ADME; settings: for blood plasma ratio: human, read-out: B:P (blood to plasma ratio)
# Description: as §1
# [6] = Rat IV pharmacokinetics; format: in vivo
# Procedure: The pharmacokinetic properties of the compounds of Examples 1 and 2 were tested in the rat model described below. The compound of Example 75 of WO 02/074754, 5′-carboxypropoxy-8′-chloro-spiro[cyclohexane-1-4′-(3′,4′-dihydro)quinazolin]-2′(1′H)-one (hereinafter “Compound A”), which is believed to represent the closest state of the art, was used as a comparison.
# The test compounds were administered to male rats (each rat receiving one compound), via the tail vein, at a dose of 1 mg/kg (0.08 mg/kg for the compound of Example 1). Blood samples were withdrawn from the rats via a surgically implanted jugular vein cannula at predetermined time-points after administration, and centrifuged to produce plasma. Plasma samples were analysed via a specific LC-MS/MS assay for the quantification of drug in plasma. The resulting plasma concentration-time curves were interrogated using a non-compartmental pharmacokinetic analysis in order to understand the disposition of each compound. The resulting output was subsequently used to estimate the likely human pharmacokinetic profile, as described below.
# The mean, dose normalised, pharmacokinetic profiles of the compounds of Examples 1 and 2, as well as that of Compound A, following 1 mg/kg intravenous administration are shown in Table 6 below and in FIG. 1.
# [7] = Human hepatic metabolic stability in cryopreserved human hepatocytes; format: in vitro ADME; settings: human, hepatocytes, pH 7.4
# Procedure: as §2, §3, §4
# [8] = molecular target: T1, PDE7B (Homo sapiens, UniProt Q9NP56); assay: PDE7B inhibition, [3H]-cAMP scintillation proximity assay; format: biochemical; settings: IC50 converted to Ki by Cheng-Prussof equation; cell lysate with full length enzyme, ~25 nM cAMP
# T1 construct: carried out using cell lysate containing full length PDE7A and PDE7B enzyme; made in house
# Procedure: (§5) The ability of the compounds of formula (I) to inhibit PDE7 may be measured using the following assay protocol.
# (§6) PDE7A and PDE7B enzymes catalyse the hydrolysis of 3′,5′-cyclic adenosine monophosphate (cAMP) to the 5′adenosine monophosphate, 5′AMP. In a multiwell plate; PDE enzyme, [^3H]-cAMP and the tested compounds, are incubated at room temperature. The incubation is terminated by addition of commercially available yttrium silicate scintillation proximity assay (SPA) beads containing zinc sulphate. The yttrium silicate beads preferentially bind linear nucleotides, thus the product of the enzyme reaction, [^3H]-5′AMP binds to the bead to produce a light signal, which is detected by a scintillation counter. The amount of signal produced directly correlates with the amount of product formed, and thus the activity of the enzyme. The maximum signal is obtained where enzyme and substrate are incubated alone. The background signal is measured from wells either containing no enzyme, or from wells containing a supra-maximal concentration of a known PDE7A/B inhibitor. Each purified batch of enzyme is quality controlled and its Km, Vmax and specific activity determined from kinetic studies before use in compound inhibition studies. The inhibition of the enzyme, by a test compound, is calculated relative to the maximum and background responses.
# (§7) The optimisation of this assay has been carried out using cell lysate containing full length PDE7A and PDE7B enzyme. The concentration of the enzyme in this cell lysate sample is unknown, so the specific activity of the cell lysate is used as a measure to ensure that the same activity per well is used despite any batch-to-batch variation of concentration/activity.
# (§8) PDE7 stock enzyme was prepared and kept at −20° C. in appropriately sized aliquots to reduce the number of freeze/thaw cycles. […] PDE7A is diluted to 1/8000 and PDE7B to 1/10000.
# (§9) The final assay [cAMP] of ˜25 nM is required, so ˜50 nM [^3H]-cAMP was prepared.
# (§10) Compound dilutions and “background” wells were made 30 stronger than required in the assay plate to allow for 1 μl compound to be diluted by 29 μl of other assay components (14 μl enzyme and 15 μl radioligand). Thus for a final assay concentration of 10 μM, the compound must be at 300 μM in the compound addition plate. 4 mM stocks of compound are supplied in 100% DMSO (or are made up @ 4 mM from powder submissions). This requires 1/13.33 dilution in DMSO to be made.
# (§11) 1 μl test compound was transferred into a suitable multi-well assay plate immediately prior to reagent assay addition, 14 μl enzyme solution was then added to the assay plate, followed by 15 μl substrate solution (ie: final assay volume 30 μl, with a final screening compound concentration of […]). The plate was then sealed using a plate sealer and incubated at room temperature for 45 min on the plate shaker.
# (§12) 30 μl Yttrium Silicate PDE4 SPA beads were then added, ensuring constant stirring of the beads to give even distribution in the assay plate. The plate was then sealed using a plate sealer and incubated at room temperature for 30 mins on the plate shaker. The beads were then allowed to settle for 30 mins, before spinning the plates for 1 min at 200 g.
# (§13) The plates were then read on a suitable radioactive counter, for example NXT-TopCount™ (available from Perkin Elmer) using the relevant protocol (30 second read time per well).
# (§14) The data was fitted to a sigmoid curve using a least squares algorithm.
# (§15) The IC50 value was converted to a K^i value using the Cheng-Prussof equation: […]
# [9] = molecular target: T2, PDE7A (Homo sapiens, UniProt Q13946); assay: PDE7A inhibition, [3H]-cAMP scintillation proximity assay; format: biochemical; settings: IC50 converted to Ki by Cheng-Prussof equation; cell lysate with full length enzyme, ~25 nM cAMP
# T2 construct: carried out using cell lysate containing full length PDE7A and PDE7B enzyme; made in house
# Procedure: as §5, §6, §7, §8, §9, §10, §11, §12, §13, §14, §15
# [10] = male rats, intravenous 1 mg/kg (0.08 mg/kg for Example 1)
# T2 sequence (Q13946 whole entry, species assumed): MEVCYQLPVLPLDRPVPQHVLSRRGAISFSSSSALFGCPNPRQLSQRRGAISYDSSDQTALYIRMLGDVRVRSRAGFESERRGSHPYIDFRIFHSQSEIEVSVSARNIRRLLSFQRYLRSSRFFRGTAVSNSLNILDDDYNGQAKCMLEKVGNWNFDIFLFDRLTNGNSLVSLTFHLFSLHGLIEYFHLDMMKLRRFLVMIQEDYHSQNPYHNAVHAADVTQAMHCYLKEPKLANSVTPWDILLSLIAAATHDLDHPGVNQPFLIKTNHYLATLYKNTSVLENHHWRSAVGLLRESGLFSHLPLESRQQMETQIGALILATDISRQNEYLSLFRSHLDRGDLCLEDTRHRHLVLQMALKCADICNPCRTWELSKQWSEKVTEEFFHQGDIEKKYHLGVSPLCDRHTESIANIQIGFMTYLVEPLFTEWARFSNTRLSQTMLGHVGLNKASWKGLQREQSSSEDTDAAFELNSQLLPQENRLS
# T1 sequence (Q9NP56 whole entry, species assumed): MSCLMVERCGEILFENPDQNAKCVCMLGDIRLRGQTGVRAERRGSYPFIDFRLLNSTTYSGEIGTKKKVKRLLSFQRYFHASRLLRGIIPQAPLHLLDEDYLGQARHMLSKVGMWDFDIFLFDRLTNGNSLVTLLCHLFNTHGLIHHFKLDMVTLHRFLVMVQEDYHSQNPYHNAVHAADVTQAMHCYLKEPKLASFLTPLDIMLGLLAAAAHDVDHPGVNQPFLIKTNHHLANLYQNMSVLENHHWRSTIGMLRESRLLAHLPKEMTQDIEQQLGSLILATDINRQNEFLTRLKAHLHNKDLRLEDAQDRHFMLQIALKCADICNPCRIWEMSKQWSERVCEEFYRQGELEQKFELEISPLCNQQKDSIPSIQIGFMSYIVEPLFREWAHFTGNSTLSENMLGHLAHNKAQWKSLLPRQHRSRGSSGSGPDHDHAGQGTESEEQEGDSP
structure (smiles),measurement,setting,value
"O=C(O)CCCOc1ccc(Cl)c2c1C1(CCCCC1)NC(=O)N2 [Compound A, 5′-carboxypropoxy-8′-chloro-spiro[cyclohexane-1-4′-(3′,4′-dihydro)quinazolin]-2′(1′H)-one, reference compound]",fup (free fraction of unbound drug in plasma),[1],0.03
same,fup (fraction unbound in rat plasma),[2],0.045
same,Human Hepatocytes CLint,[3],25 μL/min/M cells
same,Clu man,[4],0.114 L/h/kg
same,B:P (blood to plasma ratio),[5],0.6
same,Clu (unbound rat plasma clearance),"[6]; Clu = Cl/fup, male rats, intravenous",9.36 L/h/kg
same,T1/2 (half life),[6]; [10],<1 h
same,Vd (volume of distribution in rat),[6]; [10],0.4 L/kg
same,Cl (rat clearance),"[6]; male rats, intravenous 1 mg/kg (0.08 mg/kg for Example 1), mean, dose normalised",0.42 L/h/kg
same,Clu rat,"[6]; unbound rat plasma clearance after intravenous administration, as repeated in Table 7",9.36 L/h/kg
"O=C1Nc2c(Cl)ccc(O[C@H]3C[C@@H](C(=O)O)C3)c2C2(CCCCC2)N1 [Example 1, Cis-3-[(8′-chloro-2′-oxo-2′,3′-dihydro-1′H-spiro[cyclohexane-1,4′-quinazolin]-5′-yl)oxy]cyclobutanecarboxylic acid]",fraction unbound,[1],0.07
same,fraction unbound,[2],0.07
same,hepatocyte CLint at 1 μM,[7],< 5 µL/min/1e6 cells
same,Clu man,[4],0.048 L/h/kg
same,half-life,[4],3 h
same,blood plasma ratio,[5],0.6
same,Clu (unbound rat plasma clearance),"[6]; male, rat, in vivo, iv",1.62 L/h/kg
same,Clu rat,"[6]; male, rat, in vivo, iv",1.62 L/h/kg
same,clearance,"[6]; male, rat, in vivo, iv",0.114 L/h/kg
same,half-life,"[6]; male, rat, in vivo, iv",4 h
same,Vd (volume of distribution in rat),"[6]; rat, in vivo, iv",0.6 L/kg
same,Ki,[8],0.0046 µM
same,Ki,[9],0.0019 µM
O=C1Nc2c(Cl)ccc(O[C@H]3C[C@H](C(=O)O)C3)c2C2(CCCCC2)N1 [Example 2],fraction unbound,[1],0.01
same,fraction unbound,[2],0.1
same,hepatocyte CLint at 1 μM,[7],< 5 µL/min/1e6 cells
same,Clu man,[4],0.012 L/h/kg
same,half-life,[4],10 h
same,blood plasma ratio,[5],0.7
same,Clu (unbound rat plasma clearance),"[6]; male, rat, in vivo, iv",4.2 L/h/kg
same,Clu rat,"[6]; male, rat, in vivo, iv",4.2 L/h/kg
same,clearance,"[6]; male, rat, in vivo, iv",0.042 L/h/kg
same,half-life,"[6]; male, rat, in vivo, iv",11 h
same,Vd (volume of distribution in rat),"[6]; rat, in vivo, iv",0.7 L/kg
same,Ki,[8],0.0134 µM
same,Ki,[9],0.0031 µM
"O=C1Nc2c(F)ccc(OCC3CC(C(=O)O)C3)c2C2(CCCCC2)N1 (centres unmarked) [Example 3, 3-[(8′-fluoro-2′-oxo-2′,3′-dihydro-1′H-spiro[cyclohexane-1,4′-quinazolin]-5′-yl)oxymethyl]cyclobutanecarboxylic acid]",hepatocyte CLint at 1 μM,[7],< 5 µL/min/1e6 cells
same,Ki,[8],0.108 µM
same,Ki,[9],0.0156 µM
"N#Cc1ccc(O[C@H]2C[C@H](C(=O)O)C2)c2c1NC(=O)NC21CCCCC1 [Example 4, trans-3-[(8′-cyano-2′-oxo-2′,3′-dihydro-1′H-spiro[cyclohexane-1,4′-quinazolin]-5′-yl)oxy]cyclobutanecarboxylic acid]",hepatocyte CLint at 1 μM,[7],< 5 µL/min/1e6 cells
same,Ki,[8],0.144 µM
same,Ki,[9],0.0116 µM
"O=C1Nc2c(F)ccc(OCC3(C(=O)O)CCC3)c2C2(CCCCC2)N1 [Example 5, 1-[(8′-fluoro-2′-oxo-2′,3′-dihydro-1′H-spiro[cyclohexane-1,4′-quinazolin]-5′-yl)oxymethyl]cyclobutanecarboxylic acid]",hepatocyte CLint at 1 μM,[7],< 5 µL/min/1e6 cells
same,Ki,[8],1.42 µM
same,Ki,[9],0.276 µM
"O=C1Nc2c(Cl)ccc(O[C@H]3C[C@H](C(=O)O)C3)c2C2(CCCCCC2)N1 [Example 6, Trans-3-[(8′-chloro-2′-oxo-2′,3′-dihydro-1′H-spiro[cycloheptyl-1,4′-quinazolin]-5′-yl)oxy]cyclobutanecarboxylic acid]",hepatocyte CLint at 1 μM,[7],< 5 µL/min/1e6 cells
same,Ki,[8],0.0176 µM
"O=C1Nc2c(Cl)ccc(O[C@H]3C[C@H](C(=O)O)C3)c2C2(CCCC2)N1 [Example 7, Trans-3-[(8′-chloro-2′-oxo-2′,3′-dihydro-1′H-spiro[cyclopentyl-1,4′-quinazolin]-5′-yl)oxy]cyclobutanecarboxylic acid]",hepatocyte CLint at 1 μM,[7],< 5 µL/min/1e6 cells
same,Ki,[8],0.14 µM
same,Ki,[9],0.0198 µM
